{
  "source": "patent US20060014940A1",
  "about": "“Cloning and characterization of slc26a6, slc26a1, and slc26a2 anion exchangers” (priority 2002, published 2006)",
  "key": {"rat DTDST": {"target": "T1, rat DTDST (Rattus norvegicus, UniProt O70531)", "T1 sequence (O70531 1-739)": "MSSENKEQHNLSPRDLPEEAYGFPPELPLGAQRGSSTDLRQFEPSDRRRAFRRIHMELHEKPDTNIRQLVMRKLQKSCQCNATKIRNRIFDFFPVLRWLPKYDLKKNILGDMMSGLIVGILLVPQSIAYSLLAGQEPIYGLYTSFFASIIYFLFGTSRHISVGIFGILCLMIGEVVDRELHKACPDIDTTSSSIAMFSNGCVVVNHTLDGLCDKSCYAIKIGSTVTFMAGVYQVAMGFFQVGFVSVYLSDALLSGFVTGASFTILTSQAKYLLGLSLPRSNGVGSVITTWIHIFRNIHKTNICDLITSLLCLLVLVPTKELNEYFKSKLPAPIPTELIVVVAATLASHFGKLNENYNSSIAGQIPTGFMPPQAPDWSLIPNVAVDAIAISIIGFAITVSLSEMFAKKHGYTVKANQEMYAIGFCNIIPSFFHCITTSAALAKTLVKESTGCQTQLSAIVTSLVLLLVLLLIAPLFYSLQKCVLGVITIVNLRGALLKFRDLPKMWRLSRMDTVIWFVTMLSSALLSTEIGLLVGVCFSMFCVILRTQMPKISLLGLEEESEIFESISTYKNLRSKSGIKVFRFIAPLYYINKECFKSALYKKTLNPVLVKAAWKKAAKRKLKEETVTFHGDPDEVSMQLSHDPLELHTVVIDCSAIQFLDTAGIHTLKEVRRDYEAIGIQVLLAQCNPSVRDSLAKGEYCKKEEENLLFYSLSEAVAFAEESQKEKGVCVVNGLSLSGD", "conditions": "Satoh, 1998; cited from earlier work"}, "human SLC26A3 (DRA)": {"target": "T2, human SLC26A3 (DRA) (Homo sapiens, UniProt P40879)", "T2 construct": "expressed in transfected cells; host or cells: Xenopus laevis oocytes (SLC26A3-injected)", "T2 sequence (P40879 1-764)": "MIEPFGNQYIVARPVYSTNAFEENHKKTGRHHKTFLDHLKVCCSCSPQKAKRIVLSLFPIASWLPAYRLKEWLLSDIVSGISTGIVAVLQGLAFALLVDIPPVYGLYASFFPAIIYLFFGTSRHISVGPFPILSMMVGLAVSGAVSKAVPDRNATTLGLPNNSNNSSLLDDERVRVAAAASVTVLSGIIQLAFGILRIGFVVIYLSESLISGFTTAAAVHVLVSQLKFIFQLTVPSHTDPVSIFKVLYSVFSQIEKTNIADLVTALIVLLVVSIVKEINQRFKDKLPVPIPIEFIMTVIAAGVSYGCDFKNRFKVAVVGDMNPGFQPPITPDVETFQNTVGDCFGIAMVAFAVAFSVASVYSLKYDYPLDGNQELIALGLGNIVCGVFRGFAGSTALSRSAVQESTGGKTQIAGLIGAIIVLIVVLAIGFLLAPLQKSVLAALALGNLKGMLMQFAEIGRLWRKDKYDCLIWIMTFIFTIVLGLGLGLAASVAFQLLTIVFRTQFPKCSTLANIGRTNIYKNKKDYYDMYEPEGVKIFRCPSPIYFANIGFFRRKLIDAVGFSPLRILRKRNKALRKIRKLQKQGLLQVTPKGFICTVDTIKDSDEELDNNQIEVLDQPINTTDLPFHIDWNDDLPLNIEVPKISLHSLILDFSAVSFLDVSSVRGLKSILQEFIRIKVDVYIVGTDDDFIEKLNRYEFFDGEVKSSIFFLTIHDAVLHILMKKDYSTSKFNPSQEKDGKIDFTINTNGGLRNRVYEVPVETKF", "test": "Cis-inhibition of 36Cl uptake in oocytes expressing human SLC26A3 (DRA)", "assay_type": "cell-based", "conditions": "10 mM anion (FIG. 19)", "from_the_text": "FIG. 19 depicts cis-inhibition of ^36Cl^− uptake by various anions in oocytes expressing human SLC26A3 (DRA).\nThe SLC26A6 exchanger is a likely mediator of intestinal oxalate absorption and thus a potential therapeutic target in calcium-oxalate stone disease. Intestinal expression of the SLC26A3 or DRA protein is also robust, in keeping with the genetic role of SLC26A3 in congenital chloride-losing diarrhea. Hoglund, P. et al., 1996. […] Scott, D. A., et al., 1999; Scott, D.A. & Karniski, L. P., 2000."}},
  "data": [
    {"smiles": "O=C(O)C(=O)O", "note": "[oxalate]", "values": [
      {"measurement": "cis-inhibition of sulphate transport", "setting": "rat DTDST", "value": "cis-inhibited"},
      {"measurement": "oxalate transport inferred from cis-inhibition of Cl transport", "setting": "human SLC26A3 (DRA)", "value": "minimal if any"}
    ]}
  ]
}
